Experimental data: PMC7544787, “One-step purification of two novel thermotolerant β-1,4-glucosidases from a newly isolated strain of Fusarium chlamydosporum HML278 and their characterization” (AMB Express, 2020)

Tested on: T1, β-glucosidase purified from F. chlamydosporum HML278 (BG FH1 / BG FH2, not told which)
T1 construct: native secreted enzyme from solid-state fermentation; native PAGE recovery and Sephacryl S-200; 93 kDa and 52 kDa (SDS-PAGE), single subunit
Test: initial rates, Lineweaver-Burk
Assay type: biochemical, Fusarium chlamydosporum
Settings: pH 4.8, 30 °C; one value given, not told whether BG FH1 or BG FH2
Description: initial rates, Lineweaver-Burk on β-glucosidase purified from F. chlamydosporum HML278 (BG FH1 / BG FH2, not told which) | By using pNPG as a substrate, it was shown that the Km and Vmax values

In the case of `O=[N+]([O-])c1ccc(O[C@@H]2O[C@H](CO)[C@@H](O)[C@H](O)[C@H]2O)cc1` [pNPG], the Km is reported as 2.76 mg/mL.
